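Assay format: 96-well plates, 48-hour exposure. GI50 = concentration required for 50% inhibition of growth.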 Calls of active or inactive are those of the source. Rule as the data show it: active = GI50 up to about 1.1 µM and inactive = higher.
Tests used:
Test in all cases: NCI anticancer screen, dose series, 48 h
[1] = test system: OVCAR-3
[2] = test system: Malme-3M
[3] = test system: 786-0
[4] = test system: COLO 205
[5] = test system: SR
[6] = test system: HL-60
[7] = test system: UACC-257
[8] = test system: HOP-62
[9] = test system: MOLT-4
[10] = test system: NCI-H23
[11] = test system: HCT-15
[12] = test system: SF-539
[13] = test system: U-251
[14] = test system: OVCAR-5
[15] = test system: HCC 2998
[16] = test system: RPMI-8226
[17] = test system: CAKI-1
[18] = test system: SNB-19
[19] = test system: UACC-62

| SMILES | GI50 [1] | GI50 [2] | GI50 [3] | GI50 [4] | GI50 [5] | GI50 [6] | GI50 [7] | GI50 [8] | GI50 [9] | GI50 [10] | GI50 [11] [µM] | GI50 [12] | GI50 [13] | GI50 [14] | GI50 [15] | GI50 [16] | GI50 [17] | GI50 [18] | GI50 [19] |
| --- | --- | --- | --- | --- | --- | --- | --- | --- | --- | --- | --- | --- | --- | --- | --- | --- | --- | --- | --- |
| COC(=O)Cc1cc(=O)n2c([nH]c3ccccc32)c1C#N | > 100 µM (inactive) | 81.3 µM (inactive) | > 100 µM (inactive) | > 100 µM (inactive) | > 100 µM (inactive) | > 100 µM (inactive) | > 100 µM (inactive) | > 100 µM (inactive) | > 100 µM (inactive) | > 100 µM (inactive) | > 100 | > 100 µM (inactive) | 49.3 µM (inactive) | > 100 µM (inactive) | > 100 µM (inactive) | 56.4 µM (inactive) | > 100 µM (inactive) | > 100 µM (inactive) |  |
| O=C(N/C(=C\c1ccccc1)c1nc2ccccc2c(=O)o1)c1ccccc1 | > 70.5 µM (inactive) | > 100 µM (inactive) | 41.7 µM (inactive) | > 100 µM (inactive) | > 100 µM (inactive) | > 100 µM (inactive) | > 43.1 µM (inactive) | > 52.5 µM (inactive) | > 100 µM (inactive) | 46.3 µM (inactive) | 97.1 | > 53.7 µM (inactive) | 33.8 µM (inactive) | > 88.9 µM (inactive) | > 100 µM (inactive) | > 100 µM (inactive) | > 78.3 µM (inactive) | 27.3 µM (inactive) | 30.1 µM (inactive) |
| COc1ccc2nc(-c3ccc(O)cc3)sc2c1 | 19.6 µM (inactive) | 23.5 µM (inactive) | 15.6 µM (inactive) | 21.5 µM (inactive) | 4.86 µM (inactive) | 24 µM (inactive) | 21.6 µM (inactive) |  | 27.9 µM (inactive) | 20.8 µM (inactive) | 17.9 | 21.4 µM (inactive) | 19.6 µM (inactive) | 17.7 µM (inactive) |  | < 0.01 µM (active) | 29.3 µM (inactive) | 34.7 µM (inactive) | 21.7 µM (inactive) |
| O=C(Cn1cc(F)c(=O)[nH]c1=O)C12CC3CC(CC(C3)C1)C2 | > 100 µM (inactive) | > 100 µM (inactive) | > 100 µM (inactive) | > 100 µM (inactive) | > 100 µM (inactive) | > 100 µM (inactive) | > 100 µM (inactive) | > 100 µM (inactive) | > 100 µM (inactive) | > 100 µM (inactive) | > 100 | > 100 µM (inactive) | > 100 µM (inactive) | > 100 µM (inactive) | > 100 µM (inactive) | > 100 µM (inactive) | > 100 µM (inactive) | > 100 µM (inactive) | > 100 µM (inactive) |
| Cc1ccc(NC(=O)/C=C/c2ccccc2)c(C)c1 | > 100 µM (inactive) | 86.9 µM (inactive) | 74.5 µM (inactive) | > 100 µM (inactive) | > 100 µM (inactive) | > 100 µM (inactive) | > 100 µM (inactive) | 32.7 µM (inactive) | > 100 µM (inactive) | > 100 µM (inactive) | > 100 | > 100 µM (inactive) | 76 µM (inactive) | > 100 µM (inactive) | > 100 µM (inactive) | > 100 µM (inactive) | > 100 µM (inactive) | > 100 µM (inactive) | > 100 µM (inactive) |

From ChEMBL document CHEMBL1201862, “PubChem BioAssay data set” (2004)
